Reference: article PMC5862592, “CDK8/19 inhibition induces premature G1/S transition and ATR-dependent cell death in prostate cancer cells” (Oncotarget, 2018)
Read-outs that look alike come from different tables or passages of the source.

Tests used:
Assay in all cases: biochemical
Set-up in all cases: KINOMEscan active site-directed competition binding assay (DiscoveRx), 456 kinases, per cent of control at 300 nM
Conditions in all cases: read-out: Percent of Control (%)
PRKCQ = PRKCQ (Homo sapiens, UniProt Q04759)
Summary of the method: (§1)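 Values reflect active-site competition binding from a screen of 456 kinases, with test compounds at a fixed 300 nmol/L.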

ULK2 = ULK2 (Homo sapiens, UniProt Q8IYT8)
Summary of the method: as §1

[1] = molecular target: T1, RPS6KA4(Kin.Dom.1-N-terminal) (Homo sapiens, UniProt O75676)
T1 construct: Kin.Dom.1-N-terminal
Summary of the method: as §1

MEK1 = molecular target: T2, MEK1 (Homo sapiens, UniProt Q02750)
T2 construct: gene MAP2K1
Summary of the method: as §1

PIK3C2G = PIK3C2G (Homo sapiens, UniProt O75747)
Summary of the method: as §1

CAMK2A = CAMK2A (Homo sapiens, UniProt Q9UQM7)
Summary of the method: as §1

KIT(A829P) = KIT(A829P) (Homo sapiens, UniProt P10721, A829P)
Summary of the method: as §1

ALK = ALK (Homo sapiens, UniProt Q9UM73)
Summary of the method: as §1

ERK4 = molecular target: T3, ERK4 (Homo sapiens, UniProt P31152)
T3 construct: gene MAPK4
Summary of the method: as §1

MAPKAPK2 = MAPKAPK2 (Homo sapiens, UniProt P49137)
Summary of the method: as §1

PIK3CA(Q546K) = PIK3CA(Q546K) (Homo sapiens, UniProt P42336, Q546K)
Summary of the method: as §1

NEK1 = NEK1 (Homo sapiens, UniProt Q96PY6)
Summary of the method: as §1

PCTK3 = molecular target: T4, PCTK3 (Homo sapiens, UniProt Q07002)
T4 construct: gene CDK18
Summary of the method: as §1

[2] = molecular target: T5, ABL1(F317L)-nonphosphorylated (Homo sapiens, UniProt P00519, F317L)
T5 construct: nonphosphorylated
Summary of the method: as §1

EPHA4 = EPHA4 (Homo sapiens, UniProt P54764)
Summary of the method: as §1

RIPK5 = molecular target: T6, RIPK5 (Homo sapiens, UniProt Q6XUX3)
T6 construct: gene DSTYK
Summary of the method: as §1

FLT3(R834Q) = FLT3(R834Q) (Homo sapiens, UniProt P36888, R834Q)
Summary of the method: as §1

MARK2 = MARK2 (Homo sapiens, UniProt Q7KZI7)
Summary of the method: as §1

CAMK1 = CAMK1 (Homo sapiens, UniProt Q14012)
Summary of the method: as §1

MLK1 = molecular target: T7, MLK1 (Homo sapiens, UniProt P80192)
T7 construct: gene MAP3K9
Summary of the method: as §1

SYK = SYK (Homo sapiens, UniProt P43405)
Summary of the method: as §1

CDK7 = CDK7 (Homo sapiens, UniProt P50613)
Summary of the method: as §1

MARK2, sequence (Q7KZI7 whole entry): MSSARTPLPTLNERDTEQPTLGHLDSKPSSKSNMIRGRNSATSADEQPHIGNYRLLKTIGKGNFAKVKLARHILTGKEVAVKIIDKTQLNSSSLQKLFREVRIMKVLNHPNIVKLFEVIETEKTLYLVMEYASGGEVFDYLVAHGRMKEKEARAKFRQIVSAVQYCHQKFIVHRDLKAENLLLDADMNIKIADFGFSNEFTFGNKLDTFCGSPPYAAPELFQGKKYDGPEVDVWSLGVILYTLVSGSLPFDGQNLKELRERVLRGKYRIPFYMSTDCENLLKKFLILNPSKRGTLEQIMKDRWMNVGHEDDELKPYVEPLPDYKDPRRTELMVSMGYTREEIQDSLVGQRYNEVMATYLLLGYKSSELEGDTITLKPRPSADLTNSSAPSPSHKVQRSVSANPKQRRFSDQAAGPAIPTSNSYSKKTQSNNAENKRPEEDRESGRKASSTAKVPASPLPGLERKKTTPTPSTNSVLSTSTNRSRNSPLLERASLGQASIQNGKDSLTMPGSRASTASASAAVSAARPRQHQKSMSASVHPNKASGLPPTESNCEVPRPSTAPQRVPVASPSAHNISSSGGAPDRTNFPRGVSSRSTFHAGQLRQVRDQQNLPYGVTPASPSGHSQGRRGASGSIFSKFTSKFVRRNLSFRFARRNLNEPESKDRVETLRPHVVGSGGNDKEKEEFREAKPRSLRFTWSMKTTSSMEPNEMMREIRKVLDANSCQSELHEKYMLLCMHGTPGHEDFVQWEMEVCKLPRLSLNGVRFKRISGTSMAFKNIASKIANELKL
PIK3CA(Q546K), sequence (P42336 whole entry Q546K): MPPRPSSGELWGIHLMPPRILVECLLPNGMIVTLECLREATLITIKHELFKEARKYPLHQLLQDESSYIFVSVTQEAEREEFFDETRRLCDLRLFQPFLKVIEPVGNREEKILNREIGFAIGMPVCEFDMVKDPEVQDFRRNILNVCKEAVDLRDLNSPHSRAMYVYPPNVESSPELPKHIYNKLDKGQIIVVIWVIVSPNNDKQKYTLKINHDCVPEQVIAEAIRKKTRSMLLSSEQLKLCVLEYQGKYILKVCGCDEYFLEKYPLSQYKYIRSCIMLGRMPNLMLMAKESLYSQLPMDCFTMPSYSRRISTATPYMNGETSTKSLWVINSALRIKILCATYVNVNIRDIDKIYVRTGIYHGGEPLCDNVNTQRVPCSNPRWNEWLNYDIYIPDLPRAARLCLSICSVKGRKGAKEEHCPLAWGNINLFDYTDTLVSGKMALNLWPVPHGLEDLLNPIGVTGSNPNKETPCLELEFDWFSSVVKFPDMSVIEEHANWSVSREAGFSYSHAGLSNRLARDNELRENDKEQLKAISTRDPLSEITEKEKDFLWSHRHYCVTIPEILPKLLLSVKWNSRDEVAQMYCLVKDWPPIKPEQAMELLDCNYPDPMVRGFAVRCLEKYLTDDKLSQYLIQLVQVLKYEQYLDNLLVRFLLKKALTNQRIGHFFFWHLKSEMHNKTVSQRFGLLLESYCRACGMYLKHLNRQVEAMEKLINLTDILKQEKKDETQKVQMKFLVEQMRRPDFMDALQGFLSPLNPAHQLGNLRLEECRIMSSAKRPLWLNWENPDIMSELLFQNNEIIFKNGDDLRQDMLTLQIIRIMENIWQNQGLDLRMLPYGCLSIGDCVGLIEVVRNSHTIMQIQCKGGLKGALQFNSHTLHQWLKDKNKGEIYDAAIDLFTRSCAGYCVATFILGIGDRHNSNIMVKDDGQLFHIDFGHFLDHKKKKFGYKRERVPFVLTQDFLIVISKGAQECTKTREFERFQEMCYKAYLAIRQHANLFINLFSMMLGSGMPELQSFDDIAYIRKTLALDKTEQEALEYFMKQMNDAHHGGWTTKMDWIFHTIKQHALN
T6 sequence (Q6XUX3 whole entry): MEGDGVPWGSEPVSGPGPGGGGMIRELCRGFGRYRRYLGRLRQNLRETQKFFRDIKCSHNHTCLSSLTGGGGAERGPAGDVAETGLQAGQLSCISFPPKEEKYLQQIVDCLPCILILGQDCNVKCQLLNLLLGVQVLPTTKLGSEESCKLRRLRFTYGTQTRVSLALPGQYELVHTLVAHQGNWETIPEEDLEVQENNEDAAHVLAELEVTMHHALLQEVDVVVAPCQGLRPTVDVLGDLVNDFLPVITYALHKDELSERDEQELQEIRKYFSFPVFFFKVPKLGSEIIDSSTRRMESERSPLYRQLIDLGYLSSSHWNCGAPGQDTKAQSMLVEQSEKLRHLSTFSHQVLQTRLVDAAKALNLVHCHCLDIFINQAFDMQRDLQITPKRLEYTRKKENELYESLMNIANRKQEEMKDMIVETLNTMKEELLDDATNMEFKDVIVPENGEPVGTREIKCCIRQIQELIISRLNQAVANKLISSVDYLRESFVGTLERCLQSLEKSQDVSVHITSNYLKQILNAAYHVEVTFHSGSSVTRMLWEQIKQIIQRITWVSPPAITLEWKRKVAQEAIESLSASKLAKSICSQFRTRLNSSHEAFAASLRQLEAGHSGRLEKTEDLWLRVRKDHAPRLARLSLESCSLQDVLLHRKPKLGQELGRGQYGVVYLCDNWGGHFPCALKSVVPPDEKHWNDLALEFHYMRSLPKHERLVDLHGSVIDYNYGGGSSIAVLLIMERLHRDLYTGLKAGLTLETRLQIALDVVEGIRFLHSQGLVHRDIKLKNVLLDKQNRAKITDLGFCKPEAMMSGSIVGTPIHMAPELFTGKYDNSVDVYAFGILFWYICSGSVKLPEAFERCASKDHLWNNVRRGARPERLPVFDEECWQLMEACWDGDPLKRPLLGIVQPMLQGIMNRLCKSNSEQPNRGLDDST
CAMK1, sequence (Q14012 whole entry): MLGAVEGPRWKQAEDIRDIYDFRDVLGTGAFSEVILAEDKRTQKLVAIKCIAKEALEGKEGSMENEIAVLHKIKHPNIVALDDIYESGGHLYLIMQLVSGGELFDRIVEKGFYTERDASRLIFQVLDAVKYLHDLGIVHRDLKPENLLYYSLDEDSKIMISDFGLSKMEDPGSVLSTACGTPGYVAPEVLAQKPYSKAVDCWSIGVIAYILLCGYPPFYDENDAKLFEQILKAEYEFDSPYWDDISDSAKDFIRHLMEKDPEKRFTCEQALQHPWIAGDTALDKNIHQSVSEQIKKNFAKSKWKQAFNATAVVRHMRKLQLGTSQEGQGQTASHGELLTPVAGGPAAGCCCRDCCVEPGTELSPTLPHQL
NEK1, sequence (Q96PY6 whole entry): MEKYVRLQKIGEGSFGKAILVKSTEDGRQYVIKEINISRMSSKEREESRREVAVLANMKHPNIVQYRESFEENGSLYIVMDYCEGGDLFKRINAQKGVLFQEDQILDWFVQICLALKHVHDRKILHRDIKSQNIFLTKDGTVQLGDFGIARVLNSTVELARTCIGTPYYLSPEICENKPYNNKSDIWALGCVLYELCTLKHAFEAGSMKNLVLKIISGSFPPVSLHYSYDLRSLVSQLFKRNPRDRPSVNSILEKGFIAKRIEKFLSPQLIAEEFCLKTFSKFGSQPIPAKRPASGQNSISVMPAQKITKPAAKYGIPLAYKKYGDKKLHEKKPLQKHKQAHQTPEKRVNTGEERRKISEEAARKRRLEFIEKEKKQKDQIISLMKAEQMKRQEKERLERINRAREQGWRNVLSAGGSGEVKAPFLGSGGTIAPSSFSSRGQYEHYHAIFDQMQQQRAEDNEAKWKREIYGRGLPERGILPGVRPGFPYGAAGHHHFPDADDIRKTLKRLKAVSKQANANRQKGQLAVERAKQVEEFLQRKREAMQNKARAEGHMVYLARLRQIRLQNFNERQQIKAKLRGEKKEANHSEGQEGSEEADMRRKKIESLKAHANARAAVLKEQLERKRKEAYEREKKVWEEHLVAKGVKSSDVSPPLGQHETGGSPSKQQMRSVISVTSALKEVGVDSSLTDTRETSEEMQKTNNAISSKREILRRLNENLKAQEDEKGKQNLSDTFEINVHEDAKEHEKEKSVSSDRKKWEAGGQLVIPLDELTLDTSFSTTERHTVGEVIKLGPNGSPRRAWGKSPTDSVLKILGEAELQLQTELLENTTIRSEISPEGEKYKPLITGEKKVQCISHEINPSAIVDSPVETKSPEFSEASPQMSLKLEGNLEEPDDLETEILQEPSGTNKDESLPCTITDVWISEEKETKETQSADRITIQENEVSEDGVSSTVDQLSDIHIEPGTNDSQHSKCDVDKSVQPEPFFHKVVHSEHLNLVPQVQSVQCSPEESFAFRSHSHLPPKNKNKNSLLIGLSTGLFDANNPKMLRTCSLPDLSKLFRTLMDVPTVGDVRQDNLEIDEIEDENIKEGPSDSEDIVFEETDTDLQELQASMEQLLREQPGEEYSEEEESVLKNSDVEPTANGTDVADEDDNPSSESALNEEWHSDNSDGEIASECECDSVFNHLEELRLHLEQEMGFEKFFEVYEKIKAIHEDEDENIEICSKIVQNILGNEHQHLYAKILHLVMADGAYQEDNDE
CDK7, sequence (P50613 whole entry): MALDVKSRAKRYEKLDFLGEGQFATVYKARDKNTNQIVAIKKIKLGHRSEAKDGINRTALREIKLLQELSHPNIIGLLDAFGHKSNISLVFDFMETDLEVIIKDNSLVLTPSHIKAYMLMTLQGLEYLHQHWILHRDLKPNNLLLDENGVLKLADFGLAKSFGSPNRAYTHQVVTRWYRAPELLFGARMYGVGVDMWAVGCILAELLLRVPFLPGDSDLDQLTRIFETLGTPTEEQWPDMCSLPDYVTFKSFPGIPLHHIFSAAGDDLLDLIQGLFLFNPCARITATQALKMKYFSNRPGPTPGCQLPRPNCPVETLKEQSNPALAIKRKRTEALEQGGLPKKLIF

Which results are given for `O=C(/C=C/c1cnccc1-c1ccc(F)cc1)Nc1ccc(CCc2nnco2)cc1` [T-418, (2E)-3-(4-(4-fluorophenyl)pyridin-3-yl)-N-(4-(2-(1,3,4-oxadiazol-2-yl)ethyl)phenyl)acrylamide]?
remaining binding at 0.3 µM (PRKCQ; sheet T-418): 83%; remaining binding at 0.3 µM (ULK2; sheet T-418): 100%; remaining binding at 0.3 µM ([1]; sheet T-418): 90%; remaining binding at 0.3 µM (MEK1; sheet T-418): 100%; remaining binding at 0.3 µM (PIK3C2G; sheet T-418): 95%; remaining binding at 0.3 µM (CAMK2A; sheet T-418): 96%; remaining binding at 0.3 µM (KIT(A829P); sheet T-418): 100%; remaining binding at 0.3 µM (ALK; sheet T-418): 81%; remaining binding at 0.3 µM (ERK4; sheet T-418): 100%; remaining binding at 0.3 µM (MAPKAPK2; sheet T-418): 100%; remaining binding at 0.3 µM (PIK3CA(Q546K); sheet T-418): 100%; remaining binding at 0.3 µM (NEK1; sheet T-418): 90%; remaining binding at 0.3 µM (PCTK3; sheet T-418): 100%; remaining binding at 0.3 µM ([2]; sheet T-418): 100%; remaining binding at 0.3 µM (EPHA4; sheet T-418): 100%; remaining binding at 0.3 µM (RIPK5; sheet T-418): 86%; remaining binding at 0.3 µM (FLT3(R834Q); sheet T-418): 88%; remaining binding at 0.3 µM (MARK2; sheet T-418): 100%; remaining binding at 0.3 µM (CAMK1; sheet T-418): 70%; remaining binding at 0.3 µM (MLK1; sheet T-418): 100%; remaining binding at 0.3 µM (SYK; sheet T-418): 100%; remaining binding at 0.3 µM (CDK7; sheet T-418): 100%

With `Cc1ncccc1Oc1sc(C(N)=O)c2c1-c1c(cnn1C)CC2` [T-474, 1-methyl-8-((2-methylpyridin-3-yl)oxy)-4,5-dihydro-1H-thieno[3,4-g]indazole-6-carboxamide] as the molecule, how does the remaining binding at 0.3 µM (PRKCQ) read?
Its remaining binding at 0.3 µM is 100%.

And the remaining binding at 0.3 µM (ULK2)?
Its remaining binding at 0.3 µM is 100%.

And the remaining binding at 0.3 µM [1]?
The remaining binding at 0.3 µM was 100%.

What about the remaining binding at 0.3 µM (MEK1) of the same molecule?
The remaining binding at 0.3 µM was 100%.

And the remaining binding at 0.3 µM (PIK3C2G)?
Its remaining binding at 0.3 µM is 92%.

What about the remaining binding at 0.3 µM (CAMK2A) of the same molecule?
Its remaining binding at 0.3 µM is 97%.

What about the remaining binding at 0.3 µM (KIT(A829P)) of the same molecule?
The remaining binding at 0.3 µM was 99%.

What about the remaining binding at 0.3 µM (ALK) of the same molecule?
Its remaining binding at 0.3 µM is 98%.

What about the remaining binding at 0.3 µM (ERK4) of the same molecule?
The remaining binding at 0.3 µM was 100%.

What about the remaining binding at 0.3 µM (MAPKAPK2) of the same molecule?
Its remaining binding at 0.3 µM is 100%.

What about the remaining binding at 0.3 µM (PIK3CA(Q546K)) of the same molecule?
The remaining binding at 0.3 µM was 100%.

What about the remaining binding at 0.3 µM (NEK1) of the same molecule?
The remaining binding at 0.3 µM was 95%.

What about the remaining binding at 0.3 µM (PCTK3) of the same molecule?
Its remaining binding at 0.3 µM is 100%.

What about the remaining binding at 0.3 µM [2] of the same molecule?
The remaining binding at 0.3 µM was 100%.

What about the remaining binding at 0.3 µM (EPHA4) of the same molecule?
The remaining binding at 0.3 µM was 100%.

What about the remaining binding at 0.3 µM (RIPK5) of the same molecule?
Its remaining binding at 0.3 µM is 100%.

And the remaining binding at 0.3 µM (FLT3(R834Q))?
Its remaining binding at 0.3 µM is 91%.

And the remaining binding at 0.3 µM (MARK2)?
The remaining binding at 0.3 µM was 100%.

And the remaining binding at 0.3 µM (CAMK1)?
The remaining binding at 0.3 µM was 66%.

What about the remaining binding at 0.3 µM (MLK1) of the same molecule?
The remaining binding at 0.3 µM was 100%.

And the remaining binding at 0.3 µM (SYK)?
The remaining binding at 0.3 µM was 100%.

And the remaining binding at 0.3 µM (CDK7)?
Its remaining binding at 0.3 µM is 100%.
